The record followed here is ChEMBL document CHEMBL4834448, “Toward the assembly and characterization of an encoded library hit confirmation platform: Bead-Assisted Ligand Isolation Mass Spectrometry (BALI-MS)” (Bioorg Med Chem, 2021).

Structures are written as SMILES. pIC50: −log10 of the molar value.

What is called pIC50 is the negative decadic logarithm of the IC50, by convention in mol/L. The low end stands for a high IC50, the high end for a low IC50.

The target in the assay is Bromodomain-containing protein 4 (Homo sapiens, UniProt O60885). The assay can be described thus: Displacement of Alexafluor 647-conjugated PFI-1 from N-terminal-His6-tagged human BRD4 BD1 domain (44 to 170 residues) incubated for 30 mins by fluorescence polarization assay. (In general: In fluorescence polarisation assays a small probe gives low polarisation when free and higher when bound to something large.)
On to `CN(C[C@H]1CC[C@H](N)CC1)c1ccc2nncn2n1`, for which the negative logarithm of the IC50 (pIC50) was 4.93. Under `CNCCN(C)c1ccc2nnc(C)n2n1` stands less than 4.52; under `Cc1nnc2ccc(N(C)CCC3CCNCC3)nn12`, 5.62. Under `CCc1nnc2ccc(N(C)C[C@H]3CC[C@H](N)CC3)nn12` stands 6.10.
